Activity calls are given as the source filed them. The calls are words filed in the database; no cut-off is given here.
Assays:
Pseudomonas aeruginosa [1] = experiment: Antibacterial activity against Pseudomonas aeruginosa PAO1 assessed as inhibition of bacterial growth incubated for 18 to 20 hrs in presence of M9 and FeCl3 medium by broth microdilution assay; type: functional, organism-based
Klebsiella pneumoniae = experiment: Antibacterial activity against Klebsiella pneumoniae ATCC 700603 assessed as inhibition of bacterial growth by measuring minimum inhibitory concentration incubated for 18 to 20 hrs in presence of M9 medium by broth microdilution assay; type: functional; details: time 18-20 hrs
Staphylococcus aureus [2] = experiment: Antibacterial activity against Staphylococcus aureus ATCC 25923 assessed as inhibition of bacterial growth by measuring minimum inhibitory concentration incubated for 18 to 20 hrs in presence of M9 medium by broth microdilution assay; type: functional; details: time 18-20 hrs
Escherichia coli = experiment: Antibacterial activity against Escherichia coli ATCC 25922 assessed as inhibition of bacterial growth by measuring minimum inhibitory concentration incubated for 18 to 20 hrs in presence of M9 medium by broth microdilution assay; type: functional; details: time 18-20 hrs
Pseudomonas aeruginosa [3] = experiment: Antibacterial activity against Pseudomonas aeruginosa PAO1 assessed as inhibition of bacterial growth incubated for 18 to 20 hrs in presence of MH medium by broth microdilution assay; type: functional, organism-based
Pseudomonas aeruginosa [4] = experiment: Antibacterial activity against multi-drug resistant Pseudomonas aeruginosa clinical isolate FB assessed as inhibition of bacterial growth by measuring minimum inhibitory concentration incubated for 18 to 20 hrs in presence of M9 medium by broth microdilution assay; type: functional; details: time 18-20 hrs
Pseudomonas aeruginosa [5] = experiment: Antibacterial activity against multi-drug resistant Pseudomonas aeruginosa clinical isolate 1129 assessed as inhibition of bacterial growth by measuring minimum inhibitory concentration incubated for 18 to 20 hrs in presence of M9 medium by broth microdilution assay; type: functional; details: time 18-20 hrs
Pseudomonas aeruginosa [6] = experiment: Antibacterial activity against Pseudomonas aeruginosa PAO1 assessed as inhibition of bacterial growth by measuring minimum inhibitory concentration incubated for 18 to 20 hrs in presence of M9 and FeCl3 medium by broth microdilution assay; type: functional; details: time 18-20 hrs
Pseudomonas aeruginosa [7] = experiment: Antibacterial activity against Pseudomonas aeruginosa PAO1 assessed as inhibition of bacterial growth incubated for 18 to 20 hrs in presence of M9 medium by broth microdilution assay; type: functional, organism-based
Pseudomonas aeruginosa [8] = experiment: Antibacterial activity against Pseudomonas aeruginosa PAO1 assessed as inhibition of bacterial growth by measuring minimum inhibitory concentration incubated for 18 to 20 hrs in presence of MH medium by broth microdilution assay; type: functional; details: time 18-20 hrs
Pseudomonas aeruginosa [9] = experiment: Antibacterial activity against Pseudomonas aeruginosa PAO1 assessed as inhibition of bacterial growth by measuring minimum inhibitory concentration incubated for 18 to 20 hrs in presence of M9 medium by broth microdilution assay; type: functional; details: time 18-20 hrs
Pseudomonas aeruginosa [10] = experiment: Antibacterial activity against multi-drug resistant Pseudomonas aeruginosa clinical isolate 1167 assessed as inhibition of bacterial growth by measuring minimum inhibitory concentration incubated for 18 to 20 hrs in presence of M9 medium by broth microdilution assay; type: functional; details: time 18-20 hrs
Pseudomonas aeruginosa [11] = experiment: Antibacterial activity against Pseudomonas aeruginosa ATCC27853 assessed as inhibition of bacterial growth by measuring minimum inhibitory concentration incubated for 18 to 20 hrs in presence of M9 medium by broth microdilution assay; type: functional; details: time 18-20 hrs
Pseudomonas aeruginosa [12] = experiment: Antibacterial activity against multi-drug resistant Pseudomonas aeruginosa clinical isolate 1121 assessed as inhibition of bacterial growth by measuring minimum inhibitory concentration incubated for 18 to 20 hrs in presence of M9 medium by broth microdilution assay; type: functional; details: time 18-20 hrs
Pseudomonas aeruginosa [13] = experiment: Antibacterial activity against Pseudomonas aeruginosa PAO1 assessed as inhibition of bacterial growth at 1 to 4 times MIC incubated upto 24 hrs by time-kill based microplate reader assay; type: functional, organism-based
Cell membrane [14] = experiment: Disruption of cell membrane integrity in Pseudomonas aeruginosa PAO1 assessed as increase in protein leakage at 0.5 to 4 MIC incubated for 6 hrs by BCA protein assay; type: cell membranes
Cell membrane [15] = experiment: Disruption of cell membrane integrity in Pseudomonas aeruginosa PAO1 assessed as increase in red fluorescence incubated for 5.5 hrs by propidium iodide staining based confocal laser-scanning microscopic analysis; type: cell membranes
Pseudomonas aeruginosa [16] = experiment: Antibacterial activity against Pseudomonas aeruginosa PAO1 assessed as inhibition of bacterial growth at 2 times MIC incubated upto 24 hrs in presence of Fe(III) by time-kill based microplate reader assay; type: functional, organism-based
Staphylococcus aureus [17] = experiment: Bactericidal activity against Staphylococcus aureus ATCC 25923 assessed as inhibition of bacterial growth at 1 to 2 times MIC incubated upto 24 hrs by time-kill based microplate reader assay; type: functional, organism-based
Vero [18] = experiment: Cytotoxicity against green monkey Vero cells assessed as reduction in cell viability at 128 ug/ml incubated for 24 hrs by MTT assay; type: toxicity, cell-based; details: chlorocebus sabaeus, dose 128 µg/ml
Vero [19] = experiment: Cytotoxicity against green monkey Vero cells assessed as reduction in cell viability at > 32 ug/ml incubated for 24 hrs by MTT assay; type: toxicity, cell-based; details: chlorocebus sabaeus, dose > 32 µg/ml
Cell membrane [20] = experiment: Disruption of cell membrane integrity in Pseudomonas aeruginosa PAO1 assessed as increase in nucleic acid leakage at 0.5 to 4 MIC incubated for 6 hrs by microplate reader analysis; type: cell membranes
Pseudomonas aeruginosa [21] = experiment: Antibacterial activity against Pseudomonas aeruginosa PAO1 infected in Caenorhabditis elegans assessed as increase in worm survival rate at 2 times MIC incubated for 60 hrs relative to control; type: functional
Pseudomonas aeruginosa [22] = experiment: Antibacterial activity against Pseudomonas aeruginosa PAO1 assessed as reduction in metabolic activity incubated for 6 hrs by resazurin reagent based microplate reader analysis; type: functional, organism-based
Pseudomonas aeruginosa [23] = experiment: Antibacterial activity against Pseudomonas aeruginosa PAO1 infected in Caenorhabditis elegans assessed as increase in worm survival rate at 0.5 times MIC incubated for 60 hrs; type: functional, organism-based

`CC(C)=CCc1c(OCCCCn2cc(COCc3cc(=O)c(O)cn3C)nn2)ccc(C(=O)/C=C/c2ccc(O)cc2)c1O` showed an IC50 (Pseudomonas aeruginosa [1]) greater than 128 µg/mL, an MIC (Klebsiella pneumoniae) greater than 128 µg/mL and an MIC (Staphylococcus aureus [2]) of 32 µg/mL. For the same compound, the MIC (Escherichia coli) was greater than 128 µg/mL, the IC50 (Pseudomonas aeruginosa [3]) was 17.8 µg/mL and the MIC (Pseudomonas aeruginosa [4]) was 16 µg/mL. For the same compound, the MIC (Pseudomonas aeruginosa [5]) was 16 µg/mL, the MIC (Pseudomonas aeruginosa [6]) was greater than 128 µg/mL and the IC50 (Pseudomonas aeruginosa [7]) was 2.55 µg/mL. It also gave an MIC (Pseudomonas aeruginosa [8]) of 32 µg/mL, an MIC (Pseudomonas aeruginosa [9]) of 16 µg/mL and an MIC (Pseudomonas aeruginosa [10]) of 16 µg/mL. It also gave an MIC (Pseudomonas aeruginosa [11]) of 32 µg/mL and an MIC (Pseudomonas aeruginosa [12]) of 8 µg/mL.
`CCn1cc(C(=O)O)c(=O)c2cc(F)c(N3CCNCC3)cc21` [NORFLOXACIN] showed an IC50 (Pseudomonas aeruginosa [1]) of 0.07 µg/mL, an MIC (Klebsiella pneumoniae) of 2 µg/mL and an MIC (Staphylococcus aureus [2]) of 2 µg/mL. For the same compound, the MIC (Escherichia coli) was 0.015 µg/mL, the IC50 (Pseudomonas aeruginosa [3]) was 0.03 µg/mL and the MIC (Pseudomonas aeruginosa [4]) was 0.5 µg/mL. The MIC (Pseudomonas aeruginosa [5]) was 1 µg/mL, the MIC (Pseudomonas aeruginosa [6]) was 0.25 µg/mL and the IC50 (Pseudomonas aeruginosa [7]) was 0.08 µg/mL. It also gave an MIC (Pseudomonas aeruginosa [8]) of 0.125 µg/mL, an MIC (Pseudomonas aeruginosa [9]) of 0.25 µg/mL and an MIC (Pseudomonas aeruginosa [10]) of 0.25 µg/mL. The MIC (Pseudomonas aeruginosa [11]) was 1 µg/mL and the MIC (Pseudomonas aeruginosa [12]) was 0.5 µg/mL.
Compound `CC(C)=CCc1c(OCCCCn2cc(COCc3c(O)c(=O)cc(C)n3C)nn2)ccc(C(=O)/C=C/c2ccc(O)cc2)c1O` has an IC50 (Pseudomonas aeruginosa [1]) greater than 128 µg/mL, an MIC (Klebsiella pneumoniae) greater than 128 µg/mL and an MIC (Staphylococcus aureus [2]) of 32 µg/mL. It also gave an MIC (Escherichia coli) greater than 128 µg/mL, an IC50 (Pseudomonas aeruginosa [3]) of 29.4 µg/mL and an MIC (Pseudomonas aeruginosa [4]) of 16 µg/mL. The MIC (Pseudomonas aeruginosa [5]) was 16 µg/mL, the MIC (Pseudomonas aeruginosa [6]) was greater than 128 µg/mL and the IC50 (Pseudomonas aeruginosa [7]) was 3.64 µg/mL. It also gave an MIC (Pseudomonas aeruginosa [8]) of 64 µg/mL, an MIC (Pseudomonas aeruginosa [9]) of 32 µg/mL and an MIC (Pseudomonas aeruginosa [10]) of 32 µg/mL. For the same compound, the MIC (Pseudomonas aeruginosa [11]) was 32 µg/mL and the MIC (Pseudomonas aeruginosa [12]) was 8 µg/mL.
In the case of `CC1(C)S[C@@H]2[C@H](NC(=O)[C@H](N)c3ccccc3)C(=O)N2[C@H]1C(=O)O` [AMPICILLIN], the IC50 (Pseudomonas aeruginosa [1]) is reported as 6.06 µg/mL, the MIC (Klebsiella pneumoniae) is reported as greater than 128 µg/mL and the MIC (Staphylococcus aureus [2]) is reported as 0.25 µg/mL. The MIC (Escherichia coli) was 8 µg/mL, the IC50 (Pseudomonas aeruginosa [3]) was 12.6 µg/mL and the MIC (Pseudomonas aeruginosa [4]) was greater than 128 µg/mL. It also gave an MIC (Pseudomonas aeruginosa [5]) greater than 128 µg/mL, an MIC (Pseudomonas aeruginosa [6]) of 32 µg/mL and an IC50 (Pseudomonas aeruginosa [7]) of 12.7 µg/mL. The MIC (Pseudomonas aeruginosa [8]) was 32 µg/mL, the MIC (Pseudomonas aeruginosa [9]) was 32 µg/mL and the MIC (Pseudomonas aeruginosa [10]) was greater than 128 µg/mL. For the same compound, the MIC (Pseudomonas aeruginosa [11]) was greater than 128 µg/mL and the MIC (Pseudomonas aeruginosa [12]) was greater than 128 µg/mL.
Work on `CC(C)=CCc1c(O)ccc(C(=O)/C=C/c2ccc(OCCCOCc3c(O)c(=O)cc(C)n3C)cc2)c1O` yielded an IC50 (Pseudomonas aeruginosa [1]) greater than 128 µg/mL, an MIC (Klebsiella pneumoniae) greater than 128 µg/mL and an MIC (Staphylococcus aureus [2]) of 32 µg/mL. It also gave an MIC (Escherichia coli) greater than 128 µg/mL, an IC50 (Pseudomonas aeruginosa [3]) of 16.2 µg/mL and an MIC (Pseudomonas aeruginosa [4]) of 16 µg/mL. It also gave an MIC (Pseudomonas aeruginosa [5]) of 16 µg/mL, an MIC (Pseudomonas aeruginosa [6]) greater than 128 µg/mL and an IC50 (Pseudomonas aeruginosa [7]) of 3.27 µg/mL. The MIC (Pseudomonas aeruginosa [8]) was 32 µg/mL, the MIC (Pseudomonas aeruginosa [9]) was 16 µg/mL and the MIC (Pseudomonas aeruginosa [10]) was 8 µg/mL. It also gave an MIC (Pseudomonas aeruginosa [11]) of 32 µg/mL and an MIC (Pseudomonas aeruginosa [12]) of 16 µg/mL.
In the case of `CC(C)=CCc1c(O)ccc(C(=O)/C=C/c2ccc(OCCCOCc3cc(=O)c(O)cn3C)cc2)c1O`, the IC50 (Pseudomonas aeruginosa [1]) is reported as greater than 128 µg/mL, the Activity (Pseudomonas aeruginosa [13]) is reported as “Active” and the Activity (Cell membrane [14]) is reported as “Active”. For the same compound, the Activity (Cell membrane [15]) was “Dose-Dependent Effect”, the Activity (Pseudomonas aeruginosa [16]) was “inactive” and the Activity (Staphylococcus aureus [17]) was “inactive”. For the same compound, the Activity (Vero [18]) was “Non-Toxic”, the MIC (Klebsiella pneumoniae) was greater than 128 µg/mL and the Activity (Vero [19]) was “Toxic”. For the same compound, the MIC (Staphylococcus aureus [2]) was 32 µg/mL, the MIC (Escherichia coli) was greater than 128 µg/mL and the IC50 (Pseudomonas aeruginosa [3]) was 16.8 µg/mL. The MIC (Pseudomonas aeruginosa [4]) was 16 µg/mL, the MIC (Pseudomonas aeruginosa [5]) was 8 µg/mL and the Activity (Cell membrane [20]) was “Active”. For the same compound, the MIC (Pseudomonas aeruginosa [6]) was greater than 128 µg/mL, the IC50 (Pseudomonas aeruginosa [7]) was 1.45 µg/mL and the Survival (Pseudomonas aeruginosa [21]) was 55%. The MIC (Pseudomonas aeruginosa [8]) was 32 µg/mL, the MIC (Pseudomonas aeruginosa [9]) was 16 µg/mL and the Activity (Pseudomonas aeruginosa [22]) was “Dose-Dependent Effect”. The MIC (Pseudomonas aeruginosa [10]) was 8 µg/mL, the Activity (Pseudomonas aeruginosa [23]) was “inactive” and the MIC (Pseudomonas aeruginosa [11]) was 32 µg/mL. It also gave an MIC (Pseudomonas aeruginosa [12]) of 8 µg/mL.
